From patent publication US20250034122A1, “SUBSTITUTED N-CYANOPYRROLIDINES WITH ACTIVITY AS USP30 INHIBITORS” (MISSION THERAPEUTICS LIMITED, priority 2021, published 2025) come the findings set out here.

In general, IC50 refers to the point on the concentration scale where inhibition reaches its midpoint.

Sequence of USP30 (Q70CQ3 57-517): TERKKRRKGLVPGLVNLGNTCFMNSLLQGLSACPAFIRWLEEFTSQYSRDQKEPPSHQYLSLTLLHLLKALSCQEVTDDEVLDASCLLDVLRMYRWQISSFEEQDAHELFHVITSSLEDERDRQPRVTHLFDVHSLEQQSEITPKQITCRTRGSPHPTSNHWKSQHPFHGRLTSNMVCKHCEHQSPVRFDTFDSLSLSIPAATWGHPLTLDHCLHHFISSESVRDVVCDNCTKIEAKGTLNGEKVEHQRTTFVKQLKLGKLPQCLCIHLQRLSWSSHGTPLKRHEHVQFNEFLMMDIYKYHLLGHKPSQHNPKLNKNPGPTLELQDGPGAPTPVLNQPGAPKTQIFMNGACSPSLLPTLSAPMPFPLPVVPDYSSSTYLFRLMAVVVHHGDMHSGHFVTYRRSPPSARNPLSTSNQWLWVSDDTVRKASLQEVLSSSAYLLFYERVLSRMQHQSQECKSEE

The experiment concerns the target USP30 (Homo sapiens (Human), UniProt Q70CQ3). The experiment in a line: USP30 biochemical IC50 assay (fluorescence polarisation). The note with it: geomean; USP30 4 nM, 30 min pre-incubation, TAMRA-peptide-ubiquitin FP substrate. A general note: Polarisation of emitted light reports the rotation of a fluorescent probe.
Description: Dilution plates were prepared at 21 times the final concentration (2100 μM for a final concentration of 100 μM) in 50% DMSO in a 96-well polypropylene V-bottom plate (Greiner #651201). A typical 8-point dilution series would be 100, 30, 10, 3, 1, 0.3, 0.1, 0.03 μM final. Reactions were performed in duplicate in black 384 well plates (small volume, Greiner 784076) in a final reaction volume of 21 μl.
Either lpl of 50% DMSO or diluted compound was added to the plate. USP30 (Boston Biochem #E582) was diluted in reaction buffer (40 mM Tris, pH 7.5, 0.005% Tween 20, 0.5 mg/ml BSA, 5 mM beta-mercaptoethanol) to achieve a final assay concentration of 4 nM, and 10 μl of diluted USP30 was added to the compound. Enzyme and compound were incubated for 30 min at room temp. Reactions were initiated by the addition of 50 nM of TAMRA labelled peptide linked to ubiquitin via an isopeptide bond as fluorescence polarisation substrate. Reactions were read immediately after addition of substrate and following a 2-hour incubation at room temperature. Readings were performed on a Pherastar Plus (BMG Labtech). λ Excitation 540 nm; λ Emission 590 nm.
Consider `N#CN1C[C@H](NC(=O)N2CCC(c3cccc(OC(F)(F)F)c3)C2)C[C@H]1Cn1cccn1` (single isomer, unassigned) [Example 37], for which the IC50 was found to be 120 nM. With `N#CN1C[C@H](NC(=O)c2ncc(-c3cccc(OC(F)(F)F)c3)o2)C[C@H]1Cn1ccnn1` [Example 4, N-((3R,5S)-5-((1H-1,2,3-Triazol-1-yl)methyl)-1-cyanopyrrolidin-3-yl)-5-(3-(trifluoromethoxy)phenyl)oxazole-2-carboxamide] the figure was 3 nM; with `N#Cc1ccc(C2CC2)c(-c2cnc(C(=O)N[C@@H]3C[C@@H](Cn4ccnn4)N(C#N)C3)o2)c1` [Example 9, N-((3R,5S)-5-((1H-1,2,3-Triazol-1-yl)methyl)-1-cyanopyrrolidin-3-yl)-5-(5-cyano-2-cyclopropylphenyl)oxazole-2-carboxamide], 2 nM; with `CCc1cccc(-c2cnc(C(=O)N[C@@H]3C[C@@H](Cn4ccnn4)N(C#N)C3)o2)c1` [Example 11, N-((3R,5S)-5-((1H-1,2,3-Triazol-1-yl)methyl)-1-cyanopyrrolidin-3-yl)-5-(3-ethylphenyl)oxazole-2-carboxamide], 4 nM. With `N#Cc1ccc(C2CC2)c(-c2nnc(C(=O)N[C@@H]3C[C@@H](Cn4ccnn4)N(C#N)C3)o2)c1` [Example 14, N-((3R,5S)-5-((1H-1,2,3-Triazol-1-yl)methyl)-1-cyanopyrrolidin-3-yl)-5-(5-cyano-2-cyclopropylphenyl)-1,3,4-oxadiazole-2-carboxamide] the figure was 4 nM; with `N#CN1C[C@H](NC(=O)c2nnc(-c3cc(OC(F)(F)F)ccc3OC3CC3)o2)C[C@H]1Cn1ccnn1` [Example 15, N-((3R,5S)-5-((1H-1,2,3-Triazol-1-yl)methyl)-1-cyanopyrrolidin-3-yl)-5-(2-cyclopropoxy-5-(trifluoromethoxy)phenyl)-1,3,4-oxadiazole-2-carboxamide], 8 nM; with `N#Cc1cccc(-c2cnc(C(=O)N[C@@H]3C[C@@H](Cn4cnnc4)N(C#N)C3)o2)c1` [Example 19, N-((3R,5S)-5-((4H-1,2,4-Triazol-4-yl)methyl)-1-cyanopyrrolidin-3-yl)-5-(3-cyanophenyl)oxazole-2-carboxamide], 2 nM.

Molecule `N#CN1C[C@H](NC(=O)c2cc(-c3cccc(OC(F)(F)F)c3)ccn2)C[C@H]1Cn1ccnn1` [Example 25, N-((3R,5S)-5-((1H-1,2,3-Triazol-1-yl)methyl)-1-cyanopyrrolidin-3-yl)-4-(3-(trifluoromethoxy)phenyl)picolinamide] showed an IC50 of 9 nM. In the case of `N#CN1C[C@H](NC(=O)c2ncc(-c3cccc(OC(F)(F)F)c3)o2)C[C@H]1Cn1cccn1` [Example 27, N-((3R,5S)-5-((1H-Pyrazol-1-yl)methyl)-1-cyanopyrrolidin-3-yl)-5-(3-(trifluoromethoxy)phenyl)oxazole-2-carboxamide] it was 9 nM. In the case of `Cc1ccn(C[C@@H]2C[C@@H](NC(=O)c3ncc(-c4cccc(OC(F)(F)F)c4)o3)CN2C#N)n1` [Example 28, N-((3R,5S)-1-Cyano-5-((3-methyl-1H-pyrazol-1-yl)methyl)pyrrolidin-3-yl)-5-(3-(trifluoromethoxy)phenyl)oxazole-2-carboxamide] it was 10 nM; in that of `Cc1ccnn1C[C@@H]1C[C@@H](NC(=O)c2ncc(-c3cccc(OC(F)(F)F)c3)o2)CN1C#N` [Example 29, N-((3R,5S)-1-Cyano-5-((5-methyl-1H-pyrazol-1-yl)methyl)pyrrolidin-3-yl)-5-(3-(trifluoromethoxy)phenyl)oxazole-2-carboxamide], 55 nM. In the case of `Cn1ncc2cc(-c3ccc(C(=O)N[C@@H]4C[C@@H](Cn5cccn5)N(C#N)C4)c(F)c3)ccc21` [Example 34, N-((3R,5S)-5-((1H-Pyrazol-1-yl)methyl)-1-cyanopyrrolidin-3-yl)-2-fluoro-4-(1-methyl-1H-indazol-5-yl)benzamide], inhibition was half-maximal at 44 nM (IC50). With `Cn1ncc2cc(-c3ccc(C(=O)N[C@@H]4C[C@@H](Cn5ccnn5)N(C#N)C4)c(F)c3)ccc21` [Example 35, N-((3R,5S)-5-((1H-1,2,3-Triazol-1-yl)methyl)-1-cyanopyrrolidin-3-yl)-2-fluoro-4-(1-methyl-1H-indazol-5-yl)benzamide] the figure was 27 nM; with `N#CN1C[C@H](NC(=O)N2CCC(c3cccc(OC(F)(F)F)c3)C2)C[C@H]1Cn1cccn1` (stereo partly drawn) [Example 36, N-((3R,5S)-5-((1H-Pyrazol-1-yl)methyl)-1-cyanopyrrolidin-3-yl)-3-(3-(trifluoromethoxy)phenyl) pyrrolidine-1-carboxamide], 100 nM; with `N#CN1C[C@H](NC(=O)N2CCC(c3cccc(OC(F)(F)F)c3)C2)C[C@H]1Cn1cccn1` (stereo partly shown) [Example 38], 210 nM. In the case of `N#CN1C[C@H](NC(=O)c2ncc(-c3ccc(F)c(OC(F)(F)F)c3)o2)C[C@H]1Cn1ccnn1` [Example 39, N-((3R,5S)-5-((1H-1,2,3-Triazol-1-yl)methyl)-1-cyanopyrrolidin-3-yl)-5-(4-fluoro-3-(trifluoromethoxy)phenyl)oxazole-2-carboxamide] it was 8 nM.

With `N#Cc1cnc(N2CCC2)c(-c2nnc(C(=O)N[C@@H]3C[C@@H](Cn4ccnn4)N(C#N)C3)o2)c1` [Example 40, N-((3R,5S)-5-((1H-1,2,3-Triazol-1-yl)methyl)-1-cyanopyrrolidin-3-yl)-5-(2-(azetidin-1-yl)-5-cyanopyridin-3-yl)-1,3,4-oxadiazole-2-carboxamide], half-maximal inhibition (IC50) required 12 nM.

The molecule `N#Cc1cnc(N2CCCC2)c(-c2nnc(C(=O)N[C@@H]3C[C@@H](Cn4ccnn4)N(C#N)C3)o2)c1` [Example 41, N-((3R,5S)-5-((1H-1,2,3-Triazol-1-yl)methyl)-1-cyanopyrrolidin-3-yl)-5-(5-cyano-2-(pyrrolidin-1-yl)pyridin-3-yl)-1,3,4-oxadiazole-2-carboxamide] registered an IC50 of 9 nM.

In turn, `N#CN1C[C@H](NC(=O)c2nnc(-c3cc(OC(F)(F)F)ccc3Cl)o2)C[C@H]1Cn1ccnn1` [Example 42, N-((3R,5S)-5-((1H-1,2,3-Triazol-1-yl)methyl)-1-cyanopyrrolidin-3-yl)-5-(2-chloro-5-(trifluoromethoxy)phenyl)-1,3,4-oxadiazole-2-carboxamide] yielded an IC50 of 6 nM. With `N#CN1C[C@H](NC(=O)c2nnc(-c3cccc(OC(F)(F)F)c3)o2)C[C@H]1Cn1ccnn1` [Example 43, N-((3R,5S)-5-((1H-1,2,3-Triazol-1-yl)methyl)-1-cyanopyrrolidin-3-yl)-5-(3-(trifluoromethoxy)phenyl)-1,3,4-oxadiazole-2-carboxamide] the figure was 12 nM. With `N#CN1C[C@H](NC(=O)c2nnc(-c3cc(OC(F)(F)F)ccc3C3CC3)o2)C[C@H]1Cn1cccn1` [Example 44, N-((3R,5S)-5-((1H-Pyrazol-1-yl)methyl)-1-cyanopyrrolidin-3-yl)-5-(2-cyclopropyl-5-(trifluoromethoxy)phenyl)-1,3,4-oxadiazole-2-carboxamide] the figure was 5 nM. Regarding `N#CN1C[C@H](NC(=O)c2nnc(-c3cc(OC(F)(F)F)ccc3C3CC3)o2)C[C@H]1Cn1nccn1` [Example 45, N-((3R,5S)-5-((2H-1,2,3-Triazol-2-yl)methyl)-1-cyanopyrrolidin-3-yl)-5-(2-cyclopropyl-5-(trifluoromethoxy)phenyl)-1,3,4-oxadiazole-2-carboxamide], the IC50 came out at 7 nM. With `N#CN1C[C@H](NC(=O)c2nnc(-c3cc(OC(F)(F)F)ccc3C3CC3)o2)C[C@H]1Cn1cncn1` [Example 47, N-((3R,5S)-5-((1H-1,2,4-Triazol-1-yl)methyl)-1-cyanopyrrolidin-3-yl)-5-(2-cyclopropyl-5-(trifluoromethoxy)phenyl)-1,3,4-oxadiazole-2-carboxamide] the figure was 5 nM. `CCCc1ccc(OC(F)(F)F)cc1-c1nnc(C(=O)N[C@@H]2C[C@@H](Cn3ccnn3)N(C#N)C2)o1` [Example 48, N-((3R,5S)-5-((1H-1,2,3-Triazol-1-yl)methyl)-1-cyanopyrrolidin-3-yl)-5-(2-propyl-5-(trifluoromethoxy)phenyl)-1,3,4-oxadiazole-2-carboxamide]: the IC50 stood at 5 nM. With `N#CN1C[C@H](NC(=O)c2nnc(-c3cc(OC(F)(F)F)ccc3C3CC3)o2)C[C@H]1Cn1cnnc1` [Example 49, N-((3R,5S)-5-((4H-1,2,4-Triazol-4-yl)methyl)-1-cyanopyrrolidin-3-yl)-5-(2-cyclopropyl-5-(trifluoromethoxy)phenyl)-1,3,4-oxadiazole-2-carboxamide] the figure was 6 nM; with `N#CN1C[C@H](NC(=O)c2nc(-c3cc(OC(F)(F)F)ccc3C3CC3)no2)C[C@H]1Cn1ccnn1` [Example 50, N-((3R,5S)-5-((1H-1,2,3-Triazol-1-yl)methyl)-1-cyanopyrrolidin-3-yl)-3-(2-cyclopropyl-5-(trifluoromethoxy)phenyl)-1,2,4-oxadiazole-5-carboxamide], 5 nM. In the case of `N#CN1C[C@H](NC(=O)c2noc(-c3cc(OC(F)(F)F)ccc3C3CC3)n2)C[C@H]1Cn1ccnn1` [Example 51, N-((3R,5S)-5-((1H-1,2,3-Triazol-1-yl)methyl)-1-cyanopyrrolidin-3-yl)-5-(2-cyclopropyl-5-(trifluoromethoxy)phenyl)-1,2,4-oxadiazole-3-carboxamide] it was 14 nM; in that of `N#CN1C[C@H](NC(=O)c2ccc(-c3cccc4[nH]ncc34)nc2)C[C@H]1Cn1cccn1` [Example 52, N-((3R,5S)-5-((1H-Pyrazol-1-yl)methyl)-1-cyanopyrrolidin-3-yl)-6-(1H-indazol-4-yl)nicotinamide], 15 nM.
